Assay results taken from patent publication US20250092001A1, “NOVEL EXCITATORY AMINO ACID GLUTAMATE TRANSPORT MODULATORS AND METHODS USING THE SAME” (Drexel University, priority 2022, published 2025).
Like-named read-outs stand apart in the source and are kept apart here. Blank lines part the entries; values can stand above or below the compound they belong to.

Tests used:
[1] = system: Drosophila model of Huntington's Disease (Htt model); assay: Larval locomotion assay in Drosophila Huntington's disease model; assay type: in vivo; conditions: third instar larvae; concentrations as low as two-fold below EC50 and one-fold below EC50
Excerpt: FIG. 6A illustrate certain aspects of a locomotion assay used to assay the locomotive activities. […] FIGS. 6B and 6C depict the results of the locomotion assay results of wild-type Drosophila (“WT”), as well as Drosophila of a Huntington's disease model treated with vehicle (“Veh”) or with various concentrations of two exemplary GLT-1 modulators. […] The Drosophila Htt model is produced by crossing UAS-Htt([…]) male flies with elav-Gal4 virgin female flies. Both fly strains were purchased from Bloomington Drosophila Stock Center (BDSC, Indiana, USA). […] Locomotion assays were conducted by transferring the third instar larvae of flies to agar plates (FIG. 6A) and counting the number of grid lines crossed in 30 seconds.

[2] = system: Drosophila model of Huntington's disease; assay: Longevity assay; assay type: in vivo; conditions: Huntington's disease model flies; up to about day 40
Method: The longevity assay was performed according to Romero et al., Neuron, 57(1), 27-40 and Linford et al., JoVE (Journal of Visualized Experiments), (71). Briefly, 100 adult flies from wild type and HTT phenotype (male and female) were collected in each designated tube and fed with food containing the specific concentration of drug. Every 2-3 days the flies were moved into new vials with fresh food and drug. Dead flies were removed and the number of flies alive during each change is noted. The tunes were maintained until the last available fly and the data was plotted as a survival curve. FIG. 8A illustrates certain aspects of a longevity assay. FIG. 8B depicts the results of the longevity assay. […] The survival rates of the flies were recorded over time.

[3] = system: Drosophila model of Huntington's disease; assay: Larval olfactory associative learning test; assay type: in vivo; conditions: Elav x Htt larvae; 3.53 nM GT467, […] GT511
Method: FIG. 7A illustrates certain aspects of a larval olfactory associative learning used to test learning and memory. In FIG. 7A, larvae were trained with either a reinforcer solution containing sucrose (“LIN/SUC”) or a control of distilled water (“LIN/DW”). The trained larvae were then transferred to a dish having test odorant placed on one side and a control on the opposite side. […] The ΔRI (difference between LIN/SUC and LIN/DW performance scores) were then calculated for the high performers (FIG. 7B), low performers (FIG. 7C) and non-performers (FIG. 7D). […] Referring to FIG. 7A, Drosophila larvae were trained with either a reinforcer solution containing sucrose (“LIN/SUC”) or a control of distilled water (“LIN/DW”). The trained larvae were then transferred to a dish having test odorant placed on one side and a control on the opposite side. The ΔRI were then calculated for the high performers (FIG. 7B), low performers (FIG. 7C) and non-performers (FIG. 7D).

[4] = Pharmacokinetics of GT467 and GT511 in rats, plasma and brain (IV, IP, PO); assay type: in vivo, rat; conditions: for AUC0-t: 0 to 24 hrs
Method: Pharmacokinetics (PK) study for GT951 was conducted at Melior Discovery Services (Exton, PA). Fifteen male CD-1 mice 23-50 g was used for the study and the mice were housed 3 per cage. PK studies for GT467 and GT511 were conducted at Piramal Pharma solutions under approved protocols (Pune, India). One hundred and sixty-eight male Wistar rats were used for the study and housed 4 per cage. All animals were maintained on a standard 12 h light cycle and given free access to water and standard rodent chow. Food and water were available ad libitum. Animals were not fasted for any portion of the study and animals were acclimated to the animal care facility for seven days prior to the start of the experiment. The holding room and procedure room temperature was 21-23° C. and humidity was at 40-45% during the experiment (within the normal range of the care facility). All procedures were completed according to Institutional Animal Care and Use Committee (IACUC) approved protocols for housing and for PK studies.
Rats were dosed with the drug and blood and brain samples were collected at 0.5, 1, 2, 4, 8 and 24 h time points. Blood was collected via the sub-lingual vein under anesthesia into tubes containing Na2EDTA as an anticoagulant. Plasma fraction was separated by centrifuging the samples at 10,000 rpm for 5 min and the plasma was transferred to a cryo tube and stored at −80 C. Animals were euthanized and the brain was rapidly removed on ice and weighed. Brain was homogenized in Milli Q water and the homogenate was stored at −80 C until further use. Bioanalysis of the samples was performed using the SCIEX QTRAP 5500 LCMS/MS system with Phenomenex synergy C18 column and carbamazepine as internal standard. A methanol extraction procedure was used to precipitate the proteins in the sample. In addition to the internal standards, drug free plasma and brain samples were prepared for calibration and quantification standards. All samples were within the detectable range of the standard curves. 50 μl of the sample was added to 200 μl of the working solution of the internal standard and centrifuged for 5 min at 10,000 rpm. 60 μl of the supernatant was added to 140 μl of water and mixed well prior to transferring them for quantitative analysis on LCMS.
Specifically, rats were administered with GT467 or GT511 intraperitoneally (IP), intravenously (IV) or orally (PO). The concentration of the administered compounds measured at various timepoints in the plasma are depicted in FIGS. 4A and 4B, the concentrations of the administered compounds measured at various timepoints in the brain are depicted in FIGS. 5A and 5B.
Furthermore, pharmacokinetic parameters such as the peak concentration (Cmax), the time to reach the peak concentration (Tmax), the area under curve from time 0 to T (i.e., 24 hrs) (AUC0-t), the area under curve from time 0 to infinite (AUC0-∞), the half-life (t1/2), the oral clearance (CL/F), the volume of distribution of drug observed (Vz_F_obs), and the percentage of bioavailability (% Bioavailability) were also measured or calculated.

[5] = system: R6/2 mice (Huntington disease model); assay: Novel object recognition assay; assay type: in vivo, mouse; conditions: 200 mg/kg, versus wild-type treated with vehicle
Method: Referring to FIG. 9B, to test for memory impairment a novel object recognition assay was performed. A 44×44 cm square shaped open field arena was used to perform this test at week 12 and week 15. The behavioral evaluation was performed in 2 sets, each set having equal number of animals. The animals were subjected to habituation a day prior to the commencement of test for 5 min followed by familiarization with similar objects for 10 min and tested with different objects for 10 min on the following day. The behavior was recorded under dim light and low noise conditions using an overhead camera. Cumulative duration with both the objects, total object exploration (sec), distance travelled (cm) was quantified using the Noldus ethovision XT 14 software.

[6] = system: R6/2 mice (Huntington disease model); assay: Open field locomotion test; assay type: in vivo, mouse; conditions: 200 mg/kg, versus wild-type treated with vehicle
Method: FIG. 9A depicts the results of a locomotion test. In the locomotion test of FIG. 9A, wildtype and R6/2 mice treated with vehicle or different doses of GTS467 (2, 4, and 10 mg/kg) or ceftriaxone (200 mg/kg) were subjected to the open field test to evaluate their locomotor abilities in a 44×44 cm and 43×43 cm square open field arena. Animals were placed individually in the open field arena and behavior was recorded for a period of 5 minutes under dim light and low noise conditions. Animal behavior was recorded using an overhead camera and the distance moved was recorded and quantified using the Noldus ethovision XT-14 software. FIG. 9B depicts the results of a memory task test. Referring to FIG. 9B, to test for memory impairment a novel object recognition assay was performed. A 44×44 cm square shaped open field arena was used to perform this test at week 12 and week 15. The behavioral evaluation was performed in 2 sets, each set having equal number of animals. […] The behavior was recorded under dim light and low noise conditions using an overhead camera. Cumulative duration with both the objects, total object exploration (sec), distance travelled (cm) was quantified using the Noldus ethovision XT 14 software. […]

[7] = male, Wistar, rat plasma, IP 10 mg/kg
[8] = male, Wistar, rat plasma, IV 5 mg/kg
[9] = male, Wistar, rat plasma, PO 10 mg/kg

AUC(0-inf) [4, 7]: 1130 ng·h/mL | Cmax [4, 7]: 450 ng/mL | AUC0-t ([4]; male, Wistar, rat plasma, IP 10 mg/kg, read-out: AUC0-t): 1070 ng·h/mL | CL/F ([4]; male, Wistar, rat plasma, IP 10 mg/kg, read-out: CL/F (converted)): 149 mL/min/kg | AUC(0-inf) [4, 8]: 995 ng·h/mL | Cmax [4, 8]: 567 ng/mL | AUC0-t ([4]; male, Wistar, rat plasma, IV 5 mg/kg, read-out: AUC0-t): 919 ng·h/mL | AUC(0-inf) [4, 9]: 399 ng·h/mL | Cmax [4, 9]: 42.9 ng/mL | AUC0-t ([4]; male, Wistar, rat plasma, PO 10 mg/kg, read-out: AUC0-t): 322 ng·h/mL | CL/F ([4]; male, Wistar, rat plasma, PO 10 mg/kg, read-out: CL/F (converted)): 505 mL/min/kg | AUC0-∞ ([4]; rat brain, IP 10 mg/kg): 467.11 ng·h/g | Tmax ([4]; rat brain, IP 10 mg/kg): 0.50 h | t1/2 ([4]; rat brain, IP 10 mg/kg): 2.26 h | AUC0-t ([4]; rat brain, IP 10 mg/kg): 429.85 ng·h/g | AUC0-∞ ([4]; rat brain, IV 5 mg/kg): 483.13 ng·h/g | Tmax ([4]; rat brain, IV 5 mg/kg): 0.50 h | t1/2 ([4]; rat brain, IV 5 mg/kg): 1.52 h | AUC0-t ([4]; rat brain, IV 5 mg/kg): 443.23 ng·h/g | Tmax ([4]; rat brain, PO 10 mg/kg): 1.38 h | AUC0-t ([4]; rat brain, PO 10 mg/kg): 183.00 ng·h/g | % Bioavailability ([4]; rat plasma, IP 10 mg/kg): 58.36% | Tmax ([4]; rat plasma, IP 10 mg/kg): 0.63 h | Vz_F_obs ([4]; rat plasma, IP 10 mg/kg): 79.2212 L/kg | t1/2 ([4]; rat plasma, IP 10 mg/kg): 6.22 h | CL/F ([4]; rat plasma, IV 5 mg/kg): 86.3097 mL/min/kg | Tmax ([4]; rat plasma, IV 5 mg/kg): 0.50 h | Vz_F_obs ([4]; rat plasma, IV 5 mg/kg): 41.46389 L/kg | t1/2 ([4]; rat plasma, IV 5 mg/kg): 6.08 h | % Bioavailability ([4]; rat plasma, PO 10 mg/kg): 17.51% | Tmax ([4]; rat plasma, PO 10 mg/kg): 3.25 h | Vz_F_obs ([4]; rat plasma, PO 10 mg/kg): 198.88289 L/kg | t1/2 ([4]; rat plasma, PO 10 mg/kg): 5.34 h
Structure (SMILES): COc1ccc(NC(=O)C(=O)N2CCN(c3ccccc3)CC2)cc1 [GT511, N-(4-methoxyphenyl)-2-oxo-2-(4-phenylpiperazin-1-yl)acetamide]
Locomotor ability (grid lines crossed in 30 seconds) [1]: restores the Huntington's disease model flies' locomotor ability | Survival rate [2]: significantly improved the survival rate | Olfactory learning performance (ΔRI) [3]: improved significantly | Plasma concentration and brain concentration by route of administration ([4]; rats, IP, IV, PO): higher plasma concentration and brain concentration than oral administration

Structure (SMILES): CO/N=C(\C(=O)N[C@@H]1C(=O)N2C(C(=O)O)=C(CSc3nc(=O)c(=O)[nH]n3C)CS[C@H]12)c1csc(N)n1 [ceftriaxone, (6R,7R)-7-{[(2Z)-2-(2-amino-1,3-thiazol-4-yl)->2-(methoxyimino)acetyl]amino}-3-{[(2-methyl-5,6-dioxo-1,2,5,6-tetrahydro-1,2,4-triazin-3-yl)thio]methyl}-8-oxo-5-thia-1-azabicyclo[4.2.0]oct-2-ene-2-carboxylic acid, reference compound]
Recognition index [5]: scored significantly lower in recognition index | Distance moved [6]: move significantly shorter distances
